Common to all, as to format: cell-based, HCV
Assay [1] concerns chimeric replicon containing the genotype 1b sequence for NS3 through NS5A and genotype 1a (H77) sequence for the NS5B region. As to the kind of experiment: Transient replicon assay, genotype 1a chimeric replicon. As to the method:
(§1) The transient replicon assay utilizes the genotype 1b (Con1) dicistronic subgenomic replicon. Genotype 1a activity was determined using a chimeric replicon containing the genotype 1b sequence for NS3 through NS5A nonstructural proteins and genotype 1a (H77) sequence for the NS5B region.
(§2) The RNA transcripts were generated using the Megascript T7 kit (Applied Biosystems, Foster City, Calif.). Exponentially growing Huh7-Lunet cells were mixed with 4 μg of replicon RNA and plated into a 96-well plate Gene Pulser MXcell Electroporation System (Bio-Rad, Hercules, Calif.). Electroporation was immediately performed at 250 V and 750 μF capacitance with a single exponential waveform pulse. Transfected cells were transferred to Dulbecco modified Eagle medium in the presence of 10% FBS and plated into 96-well plates with 7,500 cells per well. Compounds at various concentrations were added to the cells after 2 hours and were cultured for 4 days. The cells were lysed with the Bright-Glo Reagent (Promega, Madison, Wis.) and luciferase activity was measured with a luminometer (Wallac 1420 Multilabel HTS Counter Victor 2). The background control was replicon cells treated with 100 nM BILN-2061, an inhibitor of the HCV protease. Dose responses were performed in triplicate and the values were averaged. All experiments were repeated at least three times to verify the reproducibility.
(§3) The EC50 values were determined using a standard four-parameter dose response equation.
A general note: Replicon systems follow genome replication, usually without infectious particles.

Assay [2] relates to genotype 1b (Con1) dicistronic subgenomic replicon. Kind of assay: Transient replicon assay, genotype 1b. Conditions: Huh7-Lunet cells transfected with replicon RNA, cultured 4 days, luciferase activity. How it is done: as §1, §2, §3
Assay [3] can be described thus: Transient replicon assay, genotype 1a chimeric replicon. The note with it: Hepatitis C virus, genotype 1a / genotype 1b, Huh-7, 96 h, read-out: EC50 1a, Huh7-Lunet cells transfected with chimeric replicon RNA, cultured 4 days, luciferase activity. How it is done: as §1, §2, §3
The mark [4] stands for this setting: read-out: EC50 1a; Huh7-Lunet cells transfected with chimeric replicon RNA, cultured 4 days, luciferase activity.

Like-named read-outs stand apart in the source and are kept apart here.

One may read the EC50 as the concentration at which the effect is half-maximal. Regarding `CS(=O)(=O)NCc1csc2c1S(=O)(=O)N=C(C1=C(O)[C@@H]3C4C5C6CC7C4C7C(C65)[C@@H]3N(Cc3ccc(F)cc3)C1=O)N2` (racemic) [Example 4, rac-N-({3-[(4S,9R)-5-[(4-Fluorophenyl)methyl]-8-hydroxy-6-oxo-5-azahexacyclo[8.5.0.0^2,15.0^3,12.0^4,9.0^11,13]pentadec-7-en-7-yl]-1,1-dioxo-4H-1λ^6,5,2,4-thieno[2,3-e][1λ^6,2,4]thiadiazin-7-yl}methyl)methanesulfonamide], the EC50 in assay [1] (Huh7-Lunet cells transfected with chimeric replicon RNA, cultured 4 days, luciferase activity; read-out: EC50 1a) is 42 nM; in assay [2], 1 nM.
For the molecule `CS(=O)(=O)Nc1ccc2c(c1)S(=O)(=O)N=C(C1=C(O)[C@@H]3C4C5CC6C4C6C5[C@@H]3N(Cc3ccc(F)cc3)C1=O)N2` (mixture of isomers) [Example 7, rac-N-{3-[(1R,9S)-10-[(4-Fluorophenyl)methyl]-13-hydroxy-11-oxo-10-azapentacyclo[7.4.0.0^2,7.0^3,5.0^4,8]tridec-12-en-12-yl]-1,1-dioxo-4H-1λ^6,2,4-benzothiadiazin-7-yl}methanesulfonamide], the concentration for a half-maximal effect (EC50) in assay [1] (setting [4]) stood at 137 nM; in assay [2] (Hepatitis C virus, Huh-7, 96 h) it was 4 nM.
`CS(=O)(=O)Nc1ccc2c(c1)S(=O)(=O)N=C(C1=C(O)[C@@H]3C4C5CC6C4C6C5[C@@H]3N(Cc3ccc(F)cc3)C1=O)N2` (mixture of isomers) [Example 8, rac-N-{3-[(1R,9S)-10-[(4-Fluorophenyl)methyl]-13-hydroxy-11-oxo-10-azapentacyclo[7.4.0.0^2,7.0^3,5.0^4,8]tridec-12-en-12-yl]-1,1-dioxo-4H-1λ^6,2,4-benzothiadiazin-7-yl}methanesulfonamide]: the 50% effective concentration (EC50) was found to be 336 nM in assay [1] (setting [4]) and 4 nM in assay [2].
Turning to `CS(=O)(=O)Nc1ccc2c(c1)S(=O)(=O)N=C(C1=C(O)C3C4C5C6C4C4C6C5C4C3N(Cc3ccc(F)cc3)C1=O)N2` (racemic) [Example 14, rac-N-{3-[(1R,10S)-11-[(4-fluorophenyl)methyl]-14-hydroxy-12-oxo-11-azahexacyclo[8.4.0.0^2,5.0^3,8.0^4,7.0^6,9]tetradec-13-en-13-yl]-1,1-dioxo-4H-1λ^6,2,4-benzothiadiazin-7-yl}methanesulfonamide], the EC50 was 43 nM in assay [3] and 2 nM in assay [2] (Hepatitis C virus, Huh-7, 96 h).
As to `CS(=O)(=O)Nc1ccc2c(c1)S(=O)(=O)N=C(C1=C(O)[C@@H]3C4C5C6CC7C4C7C(C65)[C@@H]3N(Cc3ccc(F)cc3)C1=O)N2` [Example 2, N-{3-[(4S,9R)-5-[(4-Fluorophenyl)methyl]-8-hydroxy-6-oxo-5-azahexacyclo[8.5.0.0^2,15.0^3,12.0^4,9.0^11,13]pentadec-7-en-7-yl]-1,1-dioxo-4H-1λ^6,2,4-benzothiadiazin-7-yl}methanesulfonamide], the concentration for a half-maximal effect (EC50) came out at 8 nM in assay [3] and 1 nM in assay [2] (Hepatitis C virus, Huh-7, 96 h).
As for `CS(=O)(=O)Nc1ccc2c(c1)S(=O)(=O)N=C(C1=C(O)[C@H]3C4C5C6CC7C(C74)C(C65)[C@H]3N(Cc3ccc(F)cc3)C1=O)N2` [Example 3, N-{3-[(4R,9S)-5-[(4-Fluorophenyl)methyl]-8-hydroxy-6-oxo-5-azahexacyclo[8.5.0.0^2,15.0^3,12.0^4,9.0^11,13]pentadec-7-en-7-yl]-1,1-dioxo-4H-1λ^6,2,4-benzothiadiazin-7-yl}methanesulfonamide], the EC50 is greater than 330 nM in assay [3] and greater than 330 nM in assay [2] (Hepatitis C virus, Huh-7, 96 h).
As for `CS(=O)(=O)Nc1ccc2c(c1)S(=O)(=O)N=C(C1=C(O)[C@@H]3C4C5C6C7C4C7C(C65)[C@@H]3N(Cc3ccc(F)cc3)C1=O)N2` (stereo partly drawn) [Example 11, N-{3-[(1R,10S)-11-[(4-Fluorophenyl)methyl]-14-hydroxy-12-oxo-11-azahexacyclo[8.4.0.0^2,7.0^3,5.0^4,9.0^6,8]tetradec-13-en-13-yl]-1,1-dioxo-4H-1λ^6,2,4-benzothiadiazin-7-yl}methanesulfonamide], the concentration giving a half-maximal response (EC50) in assay [3] turned out to be 4 nM; in assay [2] (Hepatitis C virus, Huh-7, 96 h), 0.5 nM.
`CS(=O)(=O)Nc1ccc2c(c1)S(=O)(=O)N=C(C1=C(O)[C@H]3C4C5C6C7C(C74)C(C65)[C@H]3N(Cc3ccc(F)cc3)C1=O)N2` (some centres unmarked) [Example 12]: the EC50 was greater than 330 nM in assay [3] and greater than 330 nM in assay [2] (Hepatitis C virus, Huh-7, 96 h).
In the case of `CS(=O)(=O)Nc1ccc2c(c1)S(=O)(=O)N=C(C1=C(O)[C@@H]3CCC[C@@H]3N(Cc3ccc(F)cc3)C1=O)N2` [Example 17, reference compound], the EC50 in assay [3] turned out to be 550 nM; in assay [2] (Hepatitis C virus, Huh-7, 96 h), 18 nM.
The corresponding values for `CS(=O)(=O)Nc1ccc2c(c1)S(=O)(=O)N=C(C1=C(O)[C@@H]3[C@H]4CC[C@H](C4)[C@@H]3N(Cc3ccc(F)cc3)C1=O)N2` [Example 18, reference compound] are 45 nM and 2 nM.
The matching figures for `CS(=O)(=O)NCc1csc2c1S(=O)(=O)N=C(C1=C(O)[C@@H]3[C@H]4CC[C@H](C4)[C@@H]3N(Cc3ccc(F)cc3)C1=O)N2` [Example 19, reference compound]: 45 nM and 2 nM.
Regarding `CS(=O)(=O)Nc1ccc2c(c1)S(=O)(=O)N=C(C1=C(O)[C@@H]3C4CCC(CC4)[C@@H]3N(Cc3ccc(F)cc3)C1=O)N2` [Example 20, reference compound], the EC50 was determined as 12 nM in assay [3] and 0.6 nM in assay [2] (Hepatitis C virus, Huh-7, 96 h).
`CS(=O)(=O)Nc1ccc2c(c1)S(=O)(=O)N=C(c1c(O)c3cccn3n(Cc3ccc(F)cc3)c1=O)N2` [Example 21, reference compound]: the EC50 in assay [3] turned out to be 400 nM; in assay [2] (Hepatitis C virus, Huh-7, 96 h) it was 13 nM.

(Values after US20120321590A1, “BRIDGED POLYCYCLIC COMPOUNDS” (priority 2011, published 2012).)
